This experiment has as its target C-Raf FL (Homo sapiens (Human), UniProt P04049, Y340E/Y341E). Nature of the experiment: In vitro Raf activity determination (Alpha Screen, phospho-MEK), C-Raf FL (full length, Y340E/Y341E). The experiment is classed as biochemical. Conditions: ATP 1 μM; 60 min pre-incubation; 1 hour reaction; column head does not say FL or TR. An outline of the steps: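 Sf9-expressed C-Raf incubated with biotinylated kinase-dead MEK1 (K97R) in 50 mM Tris pH 7.5, 15 mM MgCl2, 0.01% BSA, 1 mM DTT with compound, 60 min at room temperature. Phospho-MEK detected by anti-p-MEK AlphaScreen luminescence; IC50 by non-linear regression.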
Turning to `CCOc1ncc(-c2cc(NC(=O)c3ccnc(C(C)(C)F)c3)ccc2C)cc1C1(O)CCOC1` (stereo not shown) [Example 295, N-(3-(6-ethoxy-5-(3-hydroxytetra-hydrofuran-3-yl)pyridin-3-yl)-4-methylphenyl)-2-(2-fluoropropan-2-yl)isonicotinamide], the IC50 (usually the concentration at which inhibition is half-maximal) is 1 nM.

Consider `CCOc1ncc(-c2cc(NC(=O)c3ccnc(C(C)(C)C#N)c3)ccc2C)cc1C1(CF)CCOC1` (stereo not shown) [Example 288, 2-(2-cyanopropan-2-yl)-N-(3-(6-ethoxy-5-(3-(fluoromethyl)tetrahydrofuran-3-yl)pyridin-3-yl)-4-methylphenyl)isonicotinamide], for which half-maximal inhibition (IC50) was put at 0.6 nM.

Take `Cc1ccc(NC(=O)c2ccnc(C(C)(C)C#N)c2)cc1-c1cc(OCCO)nc(C2(CF)CCOCC2)c1` [Example 213, 2-(2-cyanopropan-2-yl)-N-(3-(2-(4-(fluoromethyl)tetrahydro-2H-pyran-4-yl)-6-(2-hydroxyethoxy)pyridin-4-yl)-4-methylphenyl) isonicotinamide]: half-maximal inhibition (IC50) required 0.2 nM.

`CCOc1ncc(-c2cc(NC(=O)c3cccc(C(F)(F)F)c3)cnc2C)cc1C1(CF)CCOC1` (stereo not shown) [Example 167, N-(6′-ethoxy-5′-(3-(fluoromethyl)tetrahydrofuran-3-yl)-2-methyl-[3,3′-bipyridin]-5-yl)-3-(trifluoromethyl) benzamide] returned a half-maximal inhibitory concentration (IC50) of 1 nM.

Consider `CCOc1ncc(-c2cc(NC(=O)c3ccnc(C(C)(C)C#N)c3)cnc2C)cc1C1CCOCC1` [Example 164, 2-(2-cyanopropan-2-yl)-N-(6′-ethoxy-2-methyl-5′-(tetrahydro-2H-pyran-4-yl)-[3,3′-bipyridin]-5-yl)isonicotinamide], for which the IC50 came out at 0.4 nM.

Regarding `Cc1ccc(NC(=O)c2ccnc(C(F)(F)F)c2)cc1-c1cc(OCCO)nc(C2(CO)CCOCC2)c1` [Example 215], the IC50 turned out to be 0.1 nM.

Molecule `Cc1ccc(NC(=O)c2ccnc(C(C)(C)F)c2)cc1-c1cc(C2(O)COC2)cc(C2(F)COC2)c1` [Example 137, N-(3′-(3-fluorooxetan-3-yl)-5′-(3-hydroxyoxetan-3-yl)-6-methyl-[1,1′-biphenyl]-3-yl)-2-(2-fluoropropan-2-yl)isonicotinamide] registered a half-maximal inhibitory concentration (IC50) of 3.32 nM.

In the case of `Cc1ccc(NC(=O)c2cc(C(F)(F)F)ccn2)cc1-c1cc2c(c(C3CCOCC3)c1)NC(=O)C(C)(CO)O2` (single isomer, unassigned) [Example 194, N-(3-(2-(hydroxymethyl)-2-methyl-3-oxo-5-(tetrahydro-2H-pyran-4-yl)-3,4-dihydro-2H-benzo [b][1,4]oxazin-7-yl)-4-methylphenyl)-4-(trifluoromethyl) picolinamide carboxamide], the IC50 is 0.07 nM.

The molecule `Cc1ccc(NC(=O)c2ccnc(C(F)(F)F)c2)cc1-c1cc(C2CCOCC2)c(NC[C@H](C)O)nn1` [Example 311, (S)-N-(3-(6-((2-hydroxypropyl)amino)-5-(tetrahydro-2H-pyran-4-yl)pyridazin-3-yl)-4-methylphenyl)-2-(trifluoromethyl) isonicotinamide] registered an IC50 of 0.05 nM.

Take `Cc1ccc(NC(=O)C2CCNC(C(F)(F)F)C2)cc1-c1cc(C2CCOCC2)nc(N2CCC(C)(N)CC2)c1` (stereo not shown) [Example 320]: the IC50 was found to be 350 nM.

In turn, `Cc1ccc(NC(=O)c2ccnc(C(C)(C)F)c2)cc1-c1cc(OCCO)nc(C2CCOCC2O)c1` (stereo not shown) [Example 244, 2-(2-fluoropropan-2-yl)-N-(3-(2-(2-hydroxyethoxy)-6-(3-hydroxytetrahydro-2H-pyran-4-yl)pyridin-4-yl)-4-methylphenyl) isonicotinamide] showed a 50% inhibitory concentration (IC50) of 3 nM.

In turn, `CCOc1ncc(-c2cc(NC(=O)c3ccnc(C(C)(C)F)c3)cnc2C)cc1C1(CF)COC1` [Example 32, N-(6′-ethoxy-5′-(3-(fluoromethyl)oxetan-3-yl)-2-methyl-[3,3′-bipyridin]-5-yl)-2-(2-fluoropropan-2-yl)isonicotinamide] had an IC50 of 0.3 nM.

In turn, `Cc1ncc(NC(=O)c2ccnc(C(C)(C)F)c2)cc1-c1cc(OCCO)nc(C2(CF)COC2)c1` [Example 133, N-(2′-(3-(fluoromethyl)oxetan-3-yl)-6′-(2-hydroxyethoxy)-2-methyl-[3,4′-bipyridin]-5-yl)-2-(2-fluoropropan-2-yl)isonicotinamide] had an IC50 of 1.28 nM.

Molecule `Cc1ccc(NC(=O)c2ccnc(C(F)(F)F)c2)cc1-c1cc(C2CCOCC2)nc(N2CCC(C)(N)CC2)c1` [Example 321, N-(3-(2-(4-amino-4-methylpiperidin-1-yl)-6-(tetrahydro-2H-pyran-4-yl)pyridin-4-yl)-4-methylphenyl)-2-(trifluoromethyl)isonicotinamide] yielded an IC50 of 0.09 nM.

`Cc1ccc(NC(=O)c2cc(C(F)(F)F)ccn2)cc1-c1cc(OCCO)nc(C2CCOCC2)c1` [Example 272, N-(3-(2-(2-hydroxyethoxy)-6-(tetrahydro-2H-pyran-4-yl)pyridin-4-yl)-4-methylphenyl)-4-(trifluoromethyl) picolinamide] yielded an IC50 of 0.05 nM.

Molecule `Cc1ncc(NC(=O)c2ccc(CO)c(C(F)(F)F)c2)cc1-c1cccc(C2COC2)c1` [Example 7] gave an IC50 of 1 nM.

Molecule `Cc1ccc(NC(=O)c2ccnc(C(C)(C)C#N)c2)cc1-c1cc(OCCO)nc(C2(C)CCOCC2)c1` [Example 208, 2-(2-cyanopropan-2-yl)-N-(3-(2-(2-hydroxyethoxy)-6-(4-methyltetrahydro-2H-pyran-4-yl)pyridin-4-yl)-4-methylphenyl) isonicotinamide] showed an IC50 of 0.5 nM.

As for `CCOc1ncc(-c2cc(NC(=O)c3cccc(C(F)(F)F)c3)cnc2C)cc1C1(CO)CCOC1` (stereo not shown) [Example 290, N-(6′-ethoxy-5′-(3-(hydroxymethyl)tetrahydrofuran-3-yl)-2-methyl-[3,3′-bipyridin]-5-yl)-3-(trifluoromethyl) benzamide], the IC50 stood at 2 nM.

In the case of `CCOc1nnc(-c2cc(NC(=O)c3cnnc(C(F)(F)F)c3)ccc2C)cc1C1CCOCC1` [Example 237, N-(5-(6-ethoxy-5-(tetrahydro-2H-pyran-4-yl)pyridazin-3-yl)-4-methylphenyl)-6-(trifluoromethyl) pyridazine-4-carboxamide], the concentration for half-maximal inhibition (IC50) stood at 0.1 nM.

Regarding `Cc1ccc(NC(=O)c2cnnc(C(F)(F)F)c2)cc1-c1cc(OCCO)nc(C2CCOCC2)c1` [Example 271, N-(3-(2-(2-hydroxyethoxy)-6-(tetrahydro-2H-pyran-4-yl)pyridin-4-yl)-4-methylphenyl)-6-(trifluoromethyl) pyridazine-4-carboxamide], the IC50 was determined as 0.02 nM.

For `Cc1ccc(NC(=O)c2ccnc(C(C)(F)F)c2)cc1-c1cc(OCCO)nc(C2(CF)COC2)c1` [Example 56, 2-(1,1-difluoroethyl)-N-(3-(2-(3-(fluoromethyl)oxetan-3-yl)-6-(2-hydroxyethoxy)pyridin-4-yl)-4-methylphenyl)isonicotin-amide], the midpoint of inhibition, the IC50, lay at 0.281 nM.

In turn, `CCOc1nnc(-c2cc(NC(=O)c3cnc(N4CCN(CC)CC4)c(C(F)(F)F)c3)ccc2C)cc1C1CCOCC1` [Example 241, N-(3-(6-ethoxy-5-(tetrahydro-2H-pyran-4-yl)pyridazin-3-yl)-4-methylphenyl)-6-(4-ethylpiperazin-1-yl)-5-(trifluoromethyl) nicotinamide] registered an IC50 of 0.1 nM.

On to `CCOc1ncc(-c2cc(NC(=O)c3ccnc(C(C)(C)F)c3)cnc2C)cc1C1(CF)CCOC1` (stereo not shown) [Example 165, N-(6′-ethoxy-5′-(3-(fluoromethyl)tetrahydrofuran-3-yl)-2-methyl-[3,3′-bipyridin]-5-yl)-2-(2-fluoropropan-2-yl)isonicotinamide], for which half-maximal inhibition (IC50) was put at 1 nM.

`CCOc1ncc(-c2cc(NC(=O)c3cnnc(C(C)(C)C#N)c3)cnc2C)cc1C1CCOCC1` [Example 161] displayed an IC50 of 2 nM.

Take `Cc1ccc(NC(=O)c2cccc(C(F)(F)F)c2)cc1-c1cc(OCCO)nc(C2CCOCC2)c1` [Example 189, N-(3-(2-(2-hydroxyethoxy)-6-(tetrahydro-2H-pyran-4-yl)pyridin-4-yl)-4-methylphenyl)-3-(trifluoromethyl) benzamide]: the IC50 was determined as 0.136 nM.

In turn, “N-(3-(2- (hydroxymethyl)-2- methyl-3-oxo-8- (tetrahydro-2H- pyran-4-yl)-3,4-dihydro- 2H- benzo[b][1,4]oxazin-6- yl)-4-methylphenyl)-5- (trifluoromethyl) pyridazine-3-carboxamide [Example 204]” had an IC50 of 0.02 nM.

The molecule `CCOc1nnc(-c2cc(NC(=O)c3ccnc(C(C)(F)F)c3)ccc2C)cc1C1CCOCC1` [Example 225, 2-(1,1-difluoroethyl)-N-(3-(6-ethoxy-5-(tetrahydro-2H-pyran-4-yl)pyridazin-3-yl)-4-methylphenyl) isonicotinamide] came in with an IC50 of 0.02 nM.

`Cc1ccc(NC(=O)c2ccnc(C(C)(C)C#N)c2)cc1-c1cc(OCCO)nc(C2CCOCC2)c1` [Example 270, 2-(2-cyanopropan-2-yl)-N-(3-(2-(2-hydroxyethoxy)-6-(tetrahydro-2H-pyran-4-yl)pyridin-4-yl)-4-methylphenyl) isonicotinamide] returned an IC50 of 0.09 nM.

The molecule `Cc1ncc(NC(=O)c2ccnc(C(C)(C)C#N)c2)cc1-c1cc(C2(O)COC2)cc(C2(F)COC2)c1` [Example 143, 2-(2-cyanopropan-2-yl)-N-(5-(3-(3-fluorooxetan-3-yl)-5-(3-hydroxyoxetan-3-yl)phenyl)-6-methylpyridin-3-yl)isonicotinamide] displayed an IC50 of 4.36 nM.

Molecule `Cc1ccc(NC(=O)c2cccc(C(F)(F)F)c2)cc1-c1cc(C2CCOCC2)nc(N(CCO)CCO)c1` [Example 178] registered an IC50 of 0.136 nM.

Molecule `Cc1ccc(NC(=O)c2ccnc(C(C)(F)F)c2)cc1-c1cc(OCCO)nc(C2(CF)CCOCC2)c1` [Example 211, 2-(1,1-difluoroethyl)-N-(3-(2-(4-(fluoromethyl)tetrahydro-2H-pyran-4-yl)-6-(2-hydroxyethoxy)pyridin-4-yl)-4-methylphenyl) isonicotinamide] displayed an IC50 of 0.3 nM.
